Laboratory results from the supplement of paper PMC10307832.

Legend:
Test in all cases: relative viability (nuclei count vs DMSO), 5 days (fraction); higher = more cells survive
[1] = compound: CC(C)(C)c1nc(-c2cccc(NS(=O)(=O)c3c(F)cccc3F)c2F)c(-c2ccnc(N)n2)s1 [Dabrafenib] + CC(=O)Nc1cccc(-n2c(=O)n(C3CC3)c(=O)c3c(Nc4ccc(I)cc4F)n(C)c(=O)c(C)c32)c1 [Trametinib] (partner 0.02 µM)
Summary of the method: (§1)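 Lung cancer cell lines in 1536-well plates got either a single drug or a fixed anchor-drug dose together with five library-drug doses (not always all listed) in √10 steps, by pin tool, on the day after seeding. Nuclei were counted after 5 days, and relative viability is the treated-to-vehicle ratio of nuclei counts. Values are medians of duplicate plates.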

[2] = compound: CC(C)(C)c1nc(-c2cccc(NS(=O)(=O)c3c(F)cccc3F)c2F)c(-c2ccnc(N)n2)s1 [Dabrafenib] + CCNC(=O)c1noc(-c2cc(C(C)C)c(O)cc2O)c1-c1ccc(CN2CCOCC2)cc1 [Luminespib] (partner 0.01 µM)
Summary of the method: as §1

[3] = compound: NC(=O)c1ccc(N(C(N)=O)c2c(F)cccc2F)nc1-c1ccc(F)cc1F [VX-702] + CS(=O)(=O)N1CCN(Cc2cc3nc(-c4cccc5[nH]ncc45)nc(N4CCOCC4)c3s2)CC1 [Pictilisib] (partner 1 µM)
Summary of the method: as §1

[4] = compound: NC(=O)c1ccc(N(C(N)=O)c2c(F)cccc2F)nc1-c1ccc(F)cc1F [VX-702] + O=C(c1cc(Cc2n[nH]c(=O)c3ccccc23)ccc1F)N1CCN(C(=O)C2CC2)CC1 [Olaparib] (partner 8 µM)
Summary of the method: as §1

Cell Line | relative viability ([1]; first compound 0.003 µM) | relative viability ([1]; first compound 0.009487 µM) | relative viability ([1]; first compound 0.03 µM) | relative viability ([1]; first compound 0.09487 µM) | relative viability ([1]; first compound 0.3 µM) | relative viability ([2]; first compound 0.003 µM) | relative viability ([2]; first compound 0.009487 µM) | relative viability ([2]; first compound 0.03 µM) | relative viability ([2]; first compound 0.09487 µM) | relative viability ([2]; first compound 0.3 µM) | relative viability ([3]; first compound 0.02 µM) | relative viability ([3]; first compound 0.2 µM) | relative viability ([3]; first compound 0.6325 µM) | relative viability ([3]; first compound 2 µM) | relative viability ([4]; first compound 0.02 µM) | relative viability ([4]; first compound 0.2 µM) | relative viability ([4]; first compound 0.6325 µM) | relative viability ([4]; first compound 2 µM)
NCI-H1993 | 0.53 | 0.474 | 0.508 | 0.687 | 0.621 | 0.68 | 0.984 | 0.812 | 0.828 | 1.06 | 0.871 | 0.808 | 0.757 | 0.834 | 0.5 | 1.06 | 1.06 | 1.05
NCI-H2009 | 0.262 | 0.266 | 0.312 | 0.354 | 0.399 | 1.01 | 0.967 | 0.911 | 0.879 | 0.79 | 0.866 | 0.739 | 0.789 | 1.05 | 0.751 | 0.705 | 0.739 | 0.842
NCI-H2023 | 0.533 | 0.547 | 0.55 | 0.581 | 0.663 | 0.866 | 0.817 | 0.755 | 0.661 | 0.84 | 0.238 | 0.228 | 0.192 | 0.221 | 0.459 | 0.461 | 0.552 | 0.637
NCI-H2085 | 0.523 | 0.583 | 0.46 | 0.589 | 0.633 | 0.402 | 0.484 | 0.453 | 0.428 | 0.51 | 0.429 | 0.47 | 0.466 | 0.4 | 0.818 | 0.824 | 0.878 | 0.833
NCI-H2087 | – | 0.18 | 0.234 | 0.209 | 0.181 | – | 0.202 | 0.163 | 0.154 | 0.207 | 0.861 | 0.729 | 0.881 | 0.783 | 0.552 | 0.58 | 0.669 | 0.709
NCI-H2126 | 0.468 | 0.532 | 0.475 | 0.6 | 0.619 | 0.964 | 0.878 | 0.965 | 0.936 | 0.913 | 0.502 | 0.487 | 0.459 | 0.448 | 0.901 | 0.91 | 0.945 | 0.98
NCI-H2170 | 0.908 | 0.982 | 0.842 | 0.839 | 0.919 | 0.759 | 0.792 | 0.73 | 0.568 | 0.604 | 0.339 | 0.317 | 0.324 | 0.283 | 0.611 | 0.546 | 0.631 | 0.676
NCI-H2228 | 0.269 | 0.45 | 0.497 | 0.597 | 0.658 | – | 0.184 | 0.147 | 0.118 | 0.165 | 0.364 | 0.431 | 0.343 | 0.507 | 0.866 | 0.794 | 0.754 | 0.864
NCI-H2347 | – | 0.304 | 0.247 | 0.265 | 0.313 | – | 0.508 | 0.231 | 0.71 | 0.458 | 0.754 | 0.596 | 0.703 | 0.347 | 0.498 | 0.467 | 0.638 | 0.456
NCI-H2405 | – | 0.46 | 0.409 | 0.475 | 0.523 | – | 0.619 | – | 0.528 | 0.642 | 0.459 | 0.41 | 0.459 | 0.572 | 0.931 | 0.805 | 0.897 | 0.901
NCI-H3122 | 0.273 | 0.209 | 0.159 | 0.212 | 0.238 | 0.0822 | 0.0926 | 0.0643 | 0.131 | 0.0575 | 0.572 | 0.59 | 0.578 | 0.589 | 0.636 | 0.61 | 0.66 | 0.555
PC-3 [JPC-3] | – | 0.812 | 0.751 | 0.893 | 0.863 | 0.782 | 0.649 | 0.655 | 0.736 | 0.696 | 0.806 | 0.737 | 0.884 | 0.388 | 1.2 | 1.14 | 1.16 | 1.31
PC-14 | – | 0.976 | 0.944 | 0.708 | 1 | – | 0.272 | 0.158 | 0.149 | 0.115 | 0.629 | 0.608 | 0.625 | 0.807 | 0.315 | 0.329 | 0.338 | 0.282
RERF-LC-KJ | 0.811 | 0.939 | 0.961 | 0.944 | 1.05 | 1.31 | 1.3 | 1.26 | 1.31 | 1.25 | 0.562 | 0.435 | 0.625 | 0.601 | 1.01 | 0.854 | 0.921 | 0.901
SK-LU-1 | – | 0.437 | 0.329 | 0.488 | 0.456 | – | 0.234 | 0.169 | 0.22 | 0.201 | 0.647 | 0.501 | 0.563 | 0.645 | 0.504 | 0.435 | 0.526 | 0.567
SK-MES-1 | – | 0.653 | 0.747 | 0.712 | 0.827 | 0.676 | 0.973 | 0.86 | 0.8 | 0.688 | 0.342 | 0.293 | 0.364 | 0.313 | 0.679 | 0.681 | 0.622 | 0.696
SW 1573 | 0.608 | 0.547 | 0.669 | 0.648 | 0.705 | 0.179 | 0.314 | 0.289 | 0.633 | 0.217 | 0.439 | 0.388 | 0.361 | 0.482 | 0.495 | 0.445 | 0.438 | 0.448
UMC-11 | 0.773 | 0.759 | 0.495 | 0.755 | 0.848 | 1.14 | 1.12 | 0.85 | 0.939 | 1.07 | 0.696 | 0.762 | 0.582 | 0.813 | 0.346 | 0.352 | 0.368 | 0.269
